“And” between values parts separate entries of the source, which are not always exact repeats. Equal values may be shown once. Read-outs that look alike come from different tables or passages of the source.
Tests used:
[1] = Plasma pharmacokinetics after an oral dose of Example 2 in SD rats; assay type: in vivo, Sprague Dawley rats; details: for bioavailability: oral
Procedure: An oral dose of Example 2 was formulated in a sterile solution of 50% water, 37.5% PEG 300, and 12.5% DMSO at 1.0 mg/mL. The dosing group consisted of three fasted male Sprague Dawley rats. At dosing, the animals weighed between 0.26 and 0.27 kg. For the oral dosing group, the formulated dose was administered via oral gavage at 5.0 mL/kg for a dose of 5.0 mg/kg. Non-compartmental pharmacokinetic analysis was performed on the plasma concentration-time data.

[2] = Plasma pharmacokinetics of Example 68 after IV infusion or PO dose in SD rats; assay type: in vivo
[3] = Example 68 in plasma, PO dose of Example 2 5 mg/kg, individual rats
[4] = male, Sprague Dawley, rat, plasma, po, 5 mg/kg, Example 68 in plasma, PO dose of Example 2 5 mg/kg, individual rats
[5] = male, Sprague Dawley, rat, plasma, po, 5 mg/kg, Example 68 in plasma, PO dose of Example 2 5 mg/kg, mean n=3
[6] = 30-minute IV infusion 1 mg/kg, individual rats
[7] = 30-minute IV infusion 1 mg/kg, mean n=3
[8] = PO dose 5 mg/kg, individual rats
[9] = SD, rat, plasma, po, 5 mg/kg, PO dose 5 mg/kg, mean n=3
[10] = Sprague-Dawley (SD), rat, plasma, iv, 1 mg/kg, 30-minute IV infusion 1 mg/kg, individual rats
[11] = Sprague-Dawley (SD), rat, plasma, iv, 1 mg/kg, 30-minute IV infusion 1 mg/kg, mean n=3

- F (bioavailability) ([1]; Example 68 after PO Example 2 5 mg/kg, based on IV exposure of Example 68 at 1.0 mg/kg, individual rats): 20.2% and 17.4%
- AUC0-24 h [1, 3]: 3.36 µM·h and 2.93 µM·h
- AUCinf [1, 3]: 3.45 µM·h and 2.98 µM·h
- Cmax [1, 3]: 2220 nM and 2450 nM
- Tmax [1, 3]: 15 min
- AUCinf ([1]; Example 68 in plasma, PO dose of Example 2 5 mg/kg, mean n=3): 3.25 µM·h
- bioavailability ([1]; male, Sprague Dawley, rat, plasma, 5 mg/kg, Example 68 after PO Example 2 5 mg/kg, based on IV exposure of Example 68 at 1.0 mg/kg, individual rats, read-out: F (bioavailability)): 19.4%
- bioavailability ([1]; male, Sprague Dawley, rat, plasma, 5 mg/kg, Example 68 after PO Example 2 5 mg/kg, based on IV exposure of Example 68 at 1.0 mg/kg, mean n=3, read-out: F (bioavailability)): 19 ± 1.4%
- AUC(0-inf) [1, 4]: 3.32 µM·h
- Cmax [1, 4]: 2120 nM
- AUC(0-t) ([1]; male, Sprague Dawley, rat, plasma, po, 5 mg/kg, Example 68 in plasma, PO dose of Example 2 5 mg/kg, individual rats, read-out: AUC0-24 h): 3.15 µM·h
- Tmax ([1]; male, Sprague Dawley, rat, plasma, po, 5 mg/kg, Example 68 in plasma, PO dose of Example 2 5 mg/kg, individual rats, read-out: Tmax): 30 min
- AUC(0-inf) [1, 5]: 3.25 ± 0.242 µM·h
- Cmax [1, 5]: 2270 ± 171 nM
- AUC(0-t) ([1]; male, Sprague Dawley, rat, plasma, po, 5 mg/kg, Example 68 in plasma, PO dose of Example 2 5 mg/kg, mean n=3, read-out: AUC0-24 h): 3.14 µM·h
- Tmax ([1]; male, Sprague Dawley, rat, plasma, po, 5 mg/kg, Example 68 in plasma, PO dose of Example 2 5 mg/kg, mean n=3, read-out: Tmax): 25.2 min
- AUCinf [2, 6]: 3.11 µM·h and 3.46 µM·h
- AUClast [2, 6]: 3.09 µM·h and 3.45 µM·h
- CL (apparent systemic clearance) [2, 6]: 17.3 mL/min/kg and 15.5 mL/min/kg
- Cmax [2, 6]: 5100 nM and 5350 nM
- MRT (mean residence time) [2, 6]: 29.4 min and 26.4 min
- Vss (volume of distribution) [2, 6]: 0.51 L/kg
- t1/2 (terminal) [2, 6]: 64.8 min and 57.6 min
- CL (apparent systemic clearance) [2, 7]: 15.8 mL/min/kg
- t1/2 (terminal) [2, 7]: 61.2 min
- AUCinf [2, 8]: 0.383 µM·h and 0.479 µM·h
- AUClast [2, 8]: 0.334 µM·h and 0.396 µM·h
- Cmax [2, 8]: 90.4 nM and 65 nM and 182 nM
- F (oral bioavailability) [2, 8]: 1.9%
- Tmax [2, 8]: 0.25 hr (2×) and 2.00 hr
- AUC(0-inf) ([2]; SD, rat, plasma, po, 5 mg/kg, PO dose 5 mg/kg, individual rats): 0.485 µM·h
- AUC(0-inf) [2, 9]: 0.449 µM·h
- Cmax [2, 9]: 113 nM
- AUC(0-inf) [2, 10]: 3.69 µM·h
- AUC(0-t) [2, 10]: 3.68 µM·h
- Cmax [2, 10]: 4940 nM
- clearance ([2]; Sprague-Dawley (SD), rat, plasma, iv, 1 mg/kg, 30-minute IV infusion 1 mg/kg, individual rats, read-out: CL (apparent systemic clearance) (converted)): 14.5 mL/min/kg
- MRT ([2]; Sprague-Dawley (SD), rat, plasma, iv, 1 mg/kg, 30-minute IV infusion 1 mg/kg, individual rats, read-out: MRT (mean residence time)): 28.2 min
- Vd ([2]; Sprague-Dawley (SD), rat, plasma, iv, 1 mg/kg, 30-minute IV infusion 1 mg/kg, individual rats, read-out: Vss (volume of distribution)): 0.41 L/kg
- half-life ([2]; Sprague-Dawley (SD), rat, plasma, iv, 1 mg/kg, 30-minute IV infusion 1 mg/kg, individual rats, read-out: t1/2 (terminal) (converted)): 60.6 min
- AUC(0-inf) [2, 11]: 3.42 µM·h
- AUC(0-t) [2, 11]: 3.4 µM·h
- Cmax [2, 11]: 5130 nM
- clearance ([2]; Sprague-Dawley (SD), rat, plasma, iv, 1 mg/kg, 30-minute IV infusion 1 mg/kg, mean n=3, read-out: CL (apparent systemic clearance) (converted)): 15.8 mL/min/kg
- MRT ([2]; Sprague-Dawley (SD), rat, plasma, iv, 1 mg/kg, 30-minute IV infusion 1 mg/kg, mean n=3, read-out: MRT (mean residence time)): 28.2 ± 1.2 min
- Vd ([2]; Sprague-Dawley (SD), rat, plasma, iv, 1 mg/kg, 30-minute IV infusion 1 mg/kg, mean n=3, read-out: Vss (volume of distribution)): 0.44 ± 0.06 L/kg
- half-life ([2]; Sprague-Dawley (SD), rat, plasma, iv, 1 mg/kg, 30-minute IV infusion 1 mg/kg, mean n=3, read-out: t1/2 (terminal) (converted)): 61.2 ± 3.6 min
- AUC(0-t) ([2]; Sprague-Dawley (SD), rat, plasma, po, 5 mg/kg, PO dose 5 mg/kg, individual rats): 0.429 µM·h
- bioavailability ([2]; Sprague-Dawley (SD), rat, plasma, po, 5 mg/kg, PO dose 5 mg/kg, individual rats, read-out: F (oral bioavailability)): 2.5%
- AUC(0-t) ([2]; Sprague-Dawley (SD), rat, plasma, po, 5 mg/kg, PO dose 5 mg/kg, mean n=3): 0.386 µM·h
- bioavailability ([2]; Sprague-Dawley (SD), rat, plasma, po, 5 mg/kg, PO dose 5 mg/kg, mean n=3, read-out: F (oral bioavailability)): 2.3%
- Tmax ([2]; Sprague-Dawley (SD), rat, plasma, po, 5 mg/kg, PO dose 5 mg/kg, mean n=3, read-out: Tmax): 49.8 min
Structure (SMILES): NC(=O)c1ccc(-c2ccc(-c3nn[nH]c3C(=O)O)cc2)cc1 [Example 68, 4-(4carbamoyl-[1,1biphenyl]-4-yl)-1H-1,2,3-triazole-5-carboxylic acid]
